This passage reports EC50, AC50 and IC50 results from ChEMBL document CHEMBL1201862, “PubChem BioAssay data set” (2004).

Several values for one entry are separate records, joined by “and”; a condition that tells them apart may be missing. Equal values may be shown once. Activity calls are given as the source filed them.

As usually defined, the EC50 is the concentration at which the effect is half-maximal. The term AC50 denotes the concentration at which the activity in the assay is half-maximal. Usually IC50 stands for the concentration needed to halve the response being measured.

For assay [1], the target named is T1, Heat shock factor protein 1 (Mus musculus, UniProt P38532).
T1 sequence (P38532 whole entry): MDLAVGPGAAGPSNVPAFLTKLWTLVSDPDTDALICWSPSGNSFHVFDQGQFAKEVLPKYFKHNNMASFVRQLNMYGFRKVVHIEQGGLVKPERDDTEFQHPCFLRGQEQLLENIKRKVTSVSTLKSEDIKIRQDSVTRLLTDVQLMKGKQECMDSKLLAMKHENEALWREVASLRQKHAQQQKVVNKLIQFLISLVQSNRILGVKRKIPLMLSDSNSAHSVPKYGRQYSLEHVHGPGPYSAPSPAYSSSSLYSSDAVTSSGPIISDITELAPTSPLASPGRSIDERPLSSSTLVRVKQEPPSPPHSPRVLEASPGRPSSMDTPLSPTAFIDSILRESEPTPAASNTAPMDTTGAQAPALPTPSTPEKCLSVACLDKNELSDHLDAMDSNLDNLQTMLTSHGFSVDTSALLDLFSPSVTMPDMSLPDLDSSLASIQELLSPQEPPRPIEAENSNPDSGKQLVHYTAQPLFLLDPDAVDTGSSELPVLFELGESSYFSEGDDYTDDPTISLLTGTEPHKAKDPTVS
As to the kind of experiment: decrease of HSF1-responsive luciferase luminescence – cell-based, NIH3T3, dose retest, confirmation (AID 2382).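 Note: NIH3T3 fibroblasts with HSF1-driven luciferase reporter stressed by proteasome inhibitor MG132; luminescence from HSF1-driven luciferase expression after 8 hours of MG132 stress.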 It counts as functional.

The nature of assay [2]: loss of viability in HepG2 cells – cell-based, CellTiter-Glo, cherry-picked, cytotoxicity control for Shn3 inhibitor project, dose response (AID 624134). It is filed as functional. Background: Cellular ATP, detected with luciferase, serves as a proxy for viable cell number.
In the next assay the test system is INS1. Put plainly: INS-1E survival protection against cytokine death – cell-based, luminescence, retest, dose response (AID 449756).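 Note: cell death triggered by IL-1 beta plus TNF-alpha plus IFN-gamma mixture; protective hits raise ATP signal compared with cytokine alone wells.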 It is filed as functional. The note with it: Rattus norvegicus.
Assay [3] concerns the target Sphingosine 1-phosphate receptor 4 (Homo sapiens, UniProt O95977). As to the kind of experiment: Fluorescence dose response cell-based high throughput screening assay for antagonists of the Sphingosine 1-Phosphate Receptor 4 (S1P4). [Related pubchem assays: 1524 (Confirmation in triplicates.), 1510 (Primary screen.)]. It counts as functional.
Assay [4] concerns the target Sphingosine 1-phosphate receptor 1 (Homo sapiens, UniProt P21453). It counts as functional.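 Note: Tango beta-arrestin reporter U2OS cells stimulated with S1P near its EC80; inhibitor potency meaning antagonism of receptor activation by the natural agonist.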
Assay [5] in a line: Trypanosoma cruzi growth suppression in host cells – NIH3T3 host cells, beta-gal luminescence, confirmation (AID 2044).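 Note: intracellular parasites grown in NIH/3T3 mouse fibroblasts as host cells; luminescent beta-galactosidase reporter signal from transgenic T. cruzi replicating inside host cells; inhibitors lower the luminescence signal.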 It counts as functional, cell-based.
Assay [6] in a line: HIV-1 AD8 envelope cell-cell fusion blockers – cherry-pick, dose response (AID 652062).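 Note: luciferase signal from cell-cell fusion driven by HIV-1 clade B AD8 Env; potency is for inhibitors of fusion seen as a drop in luminescence.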 It counts as functional, cell-based.
The target of assay [7] is T2, Zinc finger protein mex-5 (Caenorhabditis elegans, UniProt Q9XUB2).
T2 sequence (Q9XUB2 whole entry): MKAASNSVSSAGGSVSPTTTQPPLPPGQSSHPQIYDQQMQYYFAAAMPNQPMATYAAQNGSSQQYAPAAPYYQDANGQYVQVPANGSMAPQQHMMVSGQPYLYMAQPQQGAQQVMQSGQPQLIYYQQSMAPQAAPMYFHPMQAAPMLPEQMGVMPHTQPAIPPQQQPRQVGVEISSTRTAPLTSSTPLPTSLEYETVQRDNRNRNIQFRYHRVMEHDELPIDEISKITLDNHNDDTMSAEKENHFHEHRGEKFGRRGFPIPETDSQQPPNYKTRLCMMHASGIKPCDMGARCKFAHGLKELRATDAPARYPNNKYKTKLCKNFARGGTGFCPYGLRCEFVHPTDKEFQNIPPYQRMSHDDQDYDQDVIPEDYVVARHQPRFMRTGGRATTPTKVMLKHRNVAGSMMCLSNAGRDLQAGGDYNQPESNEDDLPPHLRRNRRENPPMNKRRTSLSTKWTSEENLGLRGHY
Put plainly: potency of MEX-5 RNA-binding blockers – biochemical, C. elegans, fluorescence polarization, dose response (AID 1960). Background: In fluorescence polarisation assays a small probe gives low polarisation when free and higher when bound to something large.

Assay [8] has as its target T3, RNA-binding protein pos-1 (Caenorhabditis elegans, UniProt G5EF15).
T3 sequence (G5EF15 whole entry): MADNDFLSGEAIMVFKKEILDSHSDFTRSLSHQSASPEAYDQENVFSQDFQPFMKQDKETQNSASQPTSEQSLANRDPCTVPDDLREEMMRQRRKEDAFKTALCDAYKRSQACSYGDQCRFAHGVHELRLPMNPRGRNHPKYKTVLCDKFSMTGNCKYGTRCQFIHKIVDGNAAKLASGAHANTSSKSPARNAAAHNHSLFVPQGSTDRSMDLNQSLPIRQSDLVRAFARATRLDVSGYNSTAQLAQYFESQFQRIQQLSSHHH
Put plainly: disruptors of C. elegans POS-1 RNA interaction – biochemical, fluorescence polarization, dose response (AID 1964).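 Note: purified POS-1 fused to maltose binding protein made in E. coli; potency of compounds blocking POS-1 binding to fluorescent RNA.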

The target of assay [9] is Voltage-gated N-type calcium channel alpha-1B subunit/Amyloid beta A4 precursor protein-binding family A member 1 (Homo sapiens, UniProt Q00975+Q02410). It is filed as protein assay.
For another assay, the target named is T4, Hexokinase-1 (Homo sapiens, UniProt P19367).
T4 sequence (P19367 whole entry): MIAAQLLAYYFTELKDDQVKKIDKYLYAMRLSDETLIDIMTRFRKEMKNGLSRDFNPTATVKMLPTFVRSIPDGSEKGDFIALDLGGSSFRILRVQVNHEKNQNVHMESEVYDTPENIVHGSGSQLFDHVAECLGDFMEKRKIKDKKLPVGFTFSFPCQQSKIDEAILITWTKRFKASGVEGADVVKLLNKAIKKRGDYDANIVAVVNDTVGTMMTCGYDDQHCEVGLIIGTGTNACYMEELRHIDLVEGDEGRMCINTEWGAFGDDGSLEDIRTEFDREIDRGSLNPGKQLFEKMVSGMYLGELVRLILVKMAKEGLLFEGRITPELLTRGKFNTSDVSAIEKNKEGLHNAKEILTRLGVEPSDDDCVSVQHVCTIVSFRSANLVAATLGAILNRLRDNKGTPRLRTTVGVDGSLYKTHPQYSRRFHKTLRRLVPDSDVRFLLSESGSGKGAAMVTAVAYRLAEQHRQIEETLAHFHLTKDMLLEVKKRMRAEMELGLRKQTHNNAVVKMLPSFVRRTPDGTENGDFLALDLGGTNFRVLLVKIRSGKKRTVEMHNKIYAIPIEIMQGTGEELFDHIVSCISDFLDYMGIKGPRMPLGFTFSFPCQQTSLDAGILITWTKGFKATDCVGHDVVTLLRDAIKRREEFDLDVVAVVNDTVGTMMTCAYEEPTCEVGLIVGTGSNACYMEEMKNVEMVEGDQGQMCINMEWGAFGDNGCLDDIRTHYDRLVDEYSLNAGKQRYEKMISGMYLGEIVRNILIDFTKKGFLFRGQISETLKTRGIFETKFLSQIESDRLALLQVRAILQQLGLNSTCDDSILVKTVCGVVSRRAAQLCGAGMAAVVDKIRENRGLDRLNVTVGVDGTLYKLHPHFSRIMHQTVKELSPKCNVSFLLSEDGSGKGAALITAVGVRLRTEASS
Put plainly: HK1 enzyme activation by HKDC1 hits – biochemical, selectivity assay for HKDC1 activator project, dose response (AID 504762). It counts as functional.

Chain of Sphingosine 1-phosphate receptor 1 (P21453 whole entry): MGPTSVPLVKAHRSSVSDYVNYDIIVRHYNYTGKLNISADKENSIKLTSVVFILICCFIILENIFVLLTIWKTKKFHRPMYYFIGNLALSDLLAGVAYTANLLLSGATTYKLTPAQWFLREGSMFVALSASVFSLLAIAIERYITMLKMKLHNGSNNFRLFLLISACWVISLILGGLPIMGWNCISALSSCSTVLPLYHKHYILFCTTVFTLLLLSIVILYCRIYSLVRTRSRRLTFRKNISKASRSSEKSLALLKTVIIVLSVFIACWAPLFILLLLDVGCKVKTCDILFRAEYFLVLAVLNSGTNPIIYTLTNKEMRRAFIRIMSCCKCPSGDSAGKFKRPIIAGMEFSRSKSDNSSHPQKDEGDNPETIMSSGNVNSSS
Chain of Voltage-gated N-type calcium channel alpha-1B subunit/Amyloid beta A4 precursor protein-binding family A member 1 (Q00975 whole entry): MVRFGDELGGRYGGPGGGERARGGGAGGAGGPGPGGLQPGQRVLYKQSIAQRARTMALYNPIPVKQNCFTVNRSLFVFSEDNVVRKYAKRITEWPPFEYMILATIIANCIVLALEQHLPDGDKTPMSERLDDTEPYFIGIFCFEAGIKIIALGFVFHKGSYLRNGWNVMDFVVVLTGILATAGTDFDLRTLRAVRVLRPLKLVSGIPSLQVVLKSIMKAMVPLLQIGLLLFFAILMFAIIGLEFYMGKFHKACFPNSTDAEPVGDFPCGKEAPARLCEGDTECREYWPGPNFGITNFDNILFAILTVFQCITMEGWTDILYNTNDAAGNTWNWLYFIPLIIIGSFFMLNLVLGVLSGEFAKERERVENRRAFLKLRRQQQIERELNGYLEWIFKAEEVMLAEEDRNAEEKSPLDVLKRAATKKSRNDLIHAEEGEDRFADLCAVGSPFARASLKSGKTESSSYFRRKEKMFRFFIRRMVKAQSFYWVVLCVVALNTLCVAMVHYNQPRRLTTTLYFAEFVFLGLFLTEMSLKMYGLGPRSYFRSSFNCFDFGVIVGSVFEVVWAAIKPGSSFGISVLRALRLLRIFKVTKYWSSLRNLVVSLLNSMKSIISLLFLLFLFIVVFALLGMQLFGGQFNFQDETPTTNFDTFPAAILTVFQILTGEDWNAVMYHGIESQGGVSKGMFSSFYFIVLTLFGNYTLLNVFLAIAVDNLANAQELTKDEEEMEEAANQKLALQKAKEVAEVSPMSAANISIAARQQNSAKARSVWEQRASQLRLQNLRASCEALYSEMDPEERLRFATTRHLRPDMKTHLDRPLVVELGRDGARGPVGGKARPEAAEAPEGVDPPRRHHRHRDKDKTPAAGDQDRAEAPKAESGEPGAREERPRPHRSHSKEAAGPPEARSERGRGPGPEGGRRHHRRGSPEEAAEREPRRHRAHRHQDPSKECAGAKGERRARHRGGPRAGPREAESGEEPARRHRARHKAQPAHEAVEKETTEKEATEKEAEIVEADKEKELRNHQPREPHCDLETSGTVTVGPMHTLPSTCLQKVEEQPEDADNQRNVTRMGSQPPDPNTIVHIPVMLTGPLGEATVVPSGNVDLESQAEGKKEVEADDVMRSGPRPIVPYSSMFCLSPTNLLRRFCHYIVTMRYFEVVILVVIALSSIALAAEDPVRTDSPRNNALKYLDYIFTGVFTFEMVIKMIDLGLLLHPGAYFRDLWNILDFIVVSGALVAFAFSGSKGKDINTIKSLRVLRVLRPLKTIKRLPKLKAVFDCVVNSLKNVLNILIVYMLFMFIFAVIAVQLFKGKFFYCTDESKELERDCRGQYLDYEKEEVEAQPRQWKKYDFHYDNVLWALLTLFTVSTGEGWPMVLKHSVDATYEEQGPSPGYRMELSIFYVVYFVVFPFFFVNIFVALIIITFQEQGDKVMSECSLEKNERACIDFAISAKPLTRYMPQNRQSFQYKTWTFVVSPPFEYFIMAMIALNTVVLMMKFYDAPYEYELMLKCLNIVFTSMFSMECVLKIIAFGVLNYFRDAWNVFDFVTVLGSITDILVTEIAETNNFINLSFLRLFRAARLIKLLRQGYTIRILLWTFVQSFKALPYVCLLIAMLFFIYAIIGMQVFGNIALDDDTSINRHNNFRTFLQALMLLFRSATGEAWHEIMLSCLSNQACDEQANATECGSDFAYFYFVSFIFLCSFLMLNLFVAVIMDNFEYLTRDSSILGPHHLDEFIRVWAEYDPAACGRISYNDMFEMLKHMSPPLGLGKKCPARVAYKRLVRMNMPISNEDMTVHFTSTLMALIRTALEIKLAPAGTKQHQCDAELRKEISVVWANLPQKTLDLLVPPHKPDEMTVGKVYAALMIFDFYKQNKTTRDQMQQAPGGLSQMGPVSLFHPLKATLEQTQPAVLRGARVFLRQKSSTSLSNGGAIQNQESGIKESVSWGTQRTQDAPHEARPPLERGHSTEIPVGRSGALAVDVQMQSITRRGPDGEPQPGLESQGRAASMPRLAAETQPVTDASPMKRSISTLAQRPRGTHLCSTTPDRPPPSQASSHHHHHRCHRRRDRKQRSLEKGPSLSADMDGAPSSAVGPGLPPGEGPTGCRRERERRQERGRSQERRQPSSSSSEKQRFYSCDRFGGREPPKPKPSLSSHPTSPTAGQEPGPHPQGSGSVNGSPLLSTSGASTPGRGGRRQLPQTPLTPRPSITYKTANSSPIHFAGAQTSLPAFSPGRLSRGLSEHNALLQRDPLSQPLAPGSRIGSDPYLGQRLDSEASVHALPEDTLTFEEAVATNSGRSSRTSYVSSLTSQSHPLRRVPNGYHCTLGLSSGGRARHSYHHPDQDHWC
Chain of Voltage-gated N-type calcium channel alpha-1B subunit/Amyloid beta A4 precursor protein-binding family A member 1 (Q02410 whole entry): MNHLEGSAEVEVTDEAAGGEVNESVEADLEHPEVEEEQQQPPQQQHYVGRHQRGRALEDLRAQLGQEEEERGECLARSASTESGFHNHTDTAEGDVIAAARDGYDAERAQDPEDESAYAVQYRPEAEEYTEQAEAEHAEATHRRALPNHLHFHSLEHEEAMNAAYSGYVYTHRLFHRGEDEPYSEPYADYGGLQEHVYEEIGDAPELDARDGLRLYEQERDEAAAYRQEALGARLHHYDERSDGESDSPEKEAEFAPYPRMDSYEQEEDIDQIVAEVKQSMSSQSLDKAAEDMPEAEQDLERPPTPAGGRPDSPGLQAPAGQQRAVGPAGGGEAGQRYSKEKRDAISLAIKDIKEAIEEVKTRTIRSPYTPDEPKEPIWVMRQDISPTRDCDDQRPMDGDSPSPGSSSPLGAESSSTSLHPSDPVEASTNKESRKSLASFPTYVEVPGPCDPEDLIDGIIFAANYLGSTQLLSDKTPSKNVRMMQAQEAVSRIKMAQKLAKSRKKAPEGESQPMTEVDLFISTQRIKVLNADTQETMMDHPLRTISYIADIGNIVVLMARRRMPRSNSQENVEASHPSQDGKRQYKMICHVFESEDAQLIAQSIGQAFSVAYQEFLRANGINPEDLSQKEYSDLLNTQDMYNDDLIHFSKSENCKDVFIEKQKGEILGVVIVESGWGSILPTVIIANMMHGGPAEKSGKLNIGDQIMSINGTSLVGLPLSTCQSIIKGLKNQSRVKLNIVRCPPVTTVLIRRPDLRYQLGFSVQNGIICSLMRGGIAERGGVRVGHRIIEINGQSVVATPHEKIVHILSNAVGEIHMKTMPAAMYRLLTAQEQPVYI
Chain of Sphingosine 1-phosphate receptor 4 (O95977 whole entry): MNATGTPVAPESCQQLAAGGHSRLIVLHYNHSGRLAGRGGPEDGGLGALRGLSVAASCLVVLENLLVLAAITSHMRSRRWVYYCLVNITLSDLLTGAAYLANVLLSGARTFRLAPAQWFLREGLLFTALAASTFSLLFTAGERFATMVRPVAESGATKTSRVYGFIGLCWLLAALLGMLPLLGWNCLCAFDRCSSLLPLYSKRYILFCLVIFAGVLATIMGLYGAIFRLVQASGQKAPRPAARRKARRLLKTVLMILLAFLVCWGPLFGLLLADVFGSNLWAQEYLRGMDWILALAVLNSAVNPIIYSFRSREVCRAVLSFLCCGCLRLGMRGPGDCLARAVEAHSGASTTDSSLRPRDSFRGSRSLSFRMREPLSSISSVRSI

`O=C(Nc1ccccc1Cl)/C(Cl)=C(\Cl)[S+]([O-])c1ccccc1` (stereo unspecified): the EC50 in assay [1] is 3.56 µM (active). Also, the concentration at half-maximal activity (AC50) in assay [2] was 10.8 µM (active); in the assay with INS1, 2.07 µM (active). In addition, the 50% inhibitory concentration (IC50) in assay [3] is 0.541 µM (active); in assay [4], 10.3 µM (not active).

As to `CCCCCCCCCCCCCCCCn1cc[n+](C)c1`, the concentration for a half-maximal effect (EC50) in [5] is < 100 nM (active) and 103 nM (active); in assay [7], > 300 µM (inconclusive); in [8] it was > 300 µM (not active). Also, the AC50 in assay [6] is 5.26 µM (active).

As for `Cc1cc(C)nc(/N=c2/ssnc2Cl)c1`, the IC50 in [9] is 10.6 µM (active). At Hexokinase-1, the EC50 was 39.9 µM (inactive).
